Measured values taken from patent US8507562B2, “Synthesis of (1)-beta-elemene, (-)-beta-elemenal, (-)-beta-elemenol, (-)-beta-elemene fluoride and their analogues, intermediates, and composition and uses thereof” (HYWE Pharmaceuticals, Inc., priority 2004, dated 2013).
Where two headings read alike, the source gives them in different places.

Columns and labels:
[1] = test system: human breast cancer ao10/17
[2] = test system: Colon Cancer Cells Caco-2; assay: MTS cell viability assay; format: cell-based, human; details: combinations with Elemene 100 μg/ml, n = 8
[3] = test system: Colon Cancer Cells HCT-116; assay: MTS cell viability assay; format: cell-based, human; details: combinations with Elemene 160 μg/ml, n = 8
[4] = test system: human glioma SHG-44G (xenograph under skin); assay: Xenograph under skin, injection directly into tumor; format: in vivo, nude mice; details: for Tumor Weight X ± SD: in g (unit assumed)
Text: (§1) The mice were killed after 3 weeks.
Nude mice grew on the cengliu rack.

[5] = 3H labeled Elemene, intravenous or oral, radioactivity detected in brain; cited from earlier work
[6] = test system: human breast cancer Bcap-37
H-460 lung cancer = assay: MTT survival assay; format: cell-based, human; details: 2 × 10^4 cells/ml
[7] = test system: human glioma G-422 (xenograph under skin); assay: Xenograph under skin, injection directly into tumor; format: in vivo, mice; details: for Tumor Weight X ± SD: in g (unit assumed)
Text: as §1

[8] = test system: human glioma G422 (xenograph in brain); assay: Tumor xenographed in mice brain, survival; format: in vivo
Protocol: Mice model with tumor xenographed in mice brain: Glioma cell line G-422 or SHG44 (log phase) were diluted to 2×10^7/ml in cell culture hood (no bacteria environment). Each mouse was injected with 0.05 ml of tumor cell in its brain. […] The survival time of these mice was recorded in the next 30 days. The life extension was calculated using the following formula: Life Extension Rate=[( […])/Average survival days of control group[×100 Results: […]

[9] = test system: Colon Cancer Cells HCT-15; assay: MTS cell viability assay; details: combinations with Elemene 160 μg/ml, n = 8
[10] = Blood brain barrier passage of 3H labeled Elemene; format: in vivo, experimental animals; details: own animal experiment, tritium labeled, parent, derivatives and/or metabolites not distinguished
Text: But no careful experiments were done to figure out if it is beta-elemene itself, or its derivatives, or its metabolite or a combination of the above, which pass the BBB. Thus how Elemene works to treat brain tumor is unknown.

[11] = Chronic toxicity study, 28 days i.p.; format: in vivo; details: rats
Protocol: In the Rat study, three groups of rats (n=20 per group, half male and half female) were given (i.p.) 7.5, 15, or 30 mg/kg/d of β-Elemene for 28 days consecutively. […] Ascites were not completely absorbed during 4 weeks without drug intake. […] The accumulated toxicity of β-Elemene (via i.p.) was not severe, except irritation at local injection site. The safe dose was 7.5 mg/kg/d.

[12] = test system: Colon Cancer Cells Colo 205; assay: MTS cell viability assay; details: Colo 205, drug alone
A549 lung cancer = assay: MTT survival assay; details: 2 × 10^4 cells/ml
[13] = 12.5 mg/kg/time iv × 10 bid, listed as β-Elemene
[14] = 25 mg/kg/time iv × 10 bid, listed as β-Elemene
[15] = 50 mg/kg/time iv × 10 bid, listed as β-Elemene

## (−)-Beta-elemene
[1]; 12.5 mg/kg/time iv × 10 bid
  Inhibition Rate %: 28.28%
  Tumor Weight (g) X ± SD: 0.827 ± 0.06 g
[1]; [13]
  Inhibition Rate %: 31.08%
[1]; 25 mg/kg/time iv × 10 bid
  Inhibition Rate %: 35.03%
  Tumor Weight (g) X ± SD: 0.765 ± 0.1 g
[1]; [14]
  Inhibition Rate %: 36.25%
[1]; 50 mg/kg/time iv × 10 bid
  Inhibition Rate %: 44.14%
  Tumor Weight (g) X ± SD: 0.643 ± 0.1 g
[1]; [15]
  Inhibition Rate %: 46.42%
[2]; Caco-2, 4 hr/24 hr × 2
  IC50: 91.0 ± 7.55 µg/mL
[2]; Caco-2, 4 hr/24 hr × 3
  IC50: 81.1 ± 10.3 µg/mL
[2]; Caco-2, 4 hr/24 hr
  IC50: 108 ± 2.55 µg/mL
[2]; Caco-2, 4 hr
  IC50: 171 ± 16.0 µg/mL
[2]; Caco-2, 8 hr
  IC50: 167 ± 32.9 µg/mL
[2]; Caco-2, 12 hr
  IC50: 104 ± 10.7 µg/mL
[2]; Caco-2, 24 hr
  IC50: 107 ± 6.00 µg/mL
[2]; Caco-2, 48 hr
  IC50: 91.0 ± 7.51 µg/mL
[2]; Caco-2, 72 hr
  IC50: 89.1 ± 9.08 µg/mL
Human lung cancer A549; 12.5 mg/kg/time iv × 10 bid
  Inhibition Rate %: 31.28%
  Tumor Weight (g) X ± SD: 1.34 ± 0.10 g
Human lung cancer A549; 25 mg/kg/time iv × 10 bid
  Tumor Weight (g) X ± SD: 1.17 ± 0.09 g
Human lung cancer A549; [14]
  Inhibition Rate %: 40.0%
Human lung cancer A549; 50 mg/kg/time iv × 10 bid
  Inhibition Rate %: 43.08%
  Tumor Weight (g) X ± SD: 1.11 ± 0.08 g
[3]; HCT-116, 4 hr/24 hr × 2
  IC50: 203 ± 23.1 µg/mL
[3]; HCT-116, 4 hr/24 hr × 3
  IC50: 165 ± 22.0 µg/mL
[3]; HCT-116, 4 hr/24 hr
  IC50: 230 ± 25.2 µg/mL
[3]; HCT-116, 4 hr
  IC50: 363 ± 45.9 µg/mL
[3]; HCT-116, 8 hr
  IC50: 206 ± 24.2 µg/mL
[3]; HCT-116, 12 hr
  IC50: 201 ± 12.0 µg/mL
[3]; HCT-116, 24 hr
  IC50: 184 ± 26.1 µg/mL
[3]; HCT-116, 48 hr
  IC50: 163 ± 21.8 µg/mL
[3]; HCT-116, 72 hr
  IC50: 157 ± 22.0 µg/mL
[4]; 15 mg/kg it × 10 qd
  Inhibition Rate %: 37.83%
  Tumor Weight X ± SD: 1.15 ± 0.33
[4]; 30 mg/kg it × 10 qd
  Inhibition Rate %: 51.35%
  Tumor Weight X ± SD: 0.90 ± 0.17
[4]; 60 mg/kg it × 10 qd
  Inhibition Rate %: 63.24%
  Tumor Weight X ± SD: 0.68 ± 0.19
[5]
  blood brain barrier (BBB) passage: passes the blood brain barrier
[6]; 12.5 mg/kg/time iv × 10 bid
  Inhibition Rate %: 36.09%
  Tumor Weight (g) X ± SD: 0.870 ± 0.04 g
[6]; [13]
  Inhibition Rate %: 33.08%
[6]; 25 mg/kg/time iv × 10 bid
  Inhibition Rate %: 45.31%
  Tumor Weight (g) X ± SD: 0.738 ± 0.07 g
[6]; [14]
  Inhibition Rate %: 43.23%
[6]; 50 mg/kg/time iv × 10 bid
  Inhibition Rate %: 51.33%
  Tumor Weight (g) X ± SD: 0.675 ± 0.10 g
[6]; [15]
  Inhibition Rate %: 48.08%
H-460 lung cancer; H460, 24 h
  IC50: 89.5 µg/mL
H-460 lung cancer; H460, 48 h
  IC50: 70.6 µg/mL
H-460 lung cancer; H460, 72 h
  IC50: 68.2 µg/mL
[7]; 15 mg/kg it × 10 qd
  Inhibition Rate %: 32.00%
  Tumor Weight X ± SD: 1.53 ± 0.27
[7]; 30 mg/kg it × 10 qd
  Inhibition Rate %: 47.11%
  Tumor Weight X ± SD: 1.19 ± 0.55
[7]; 60 mg/kg it × 10 qd
  Inhibition Rate %: 60.89%
  Tumor Weight X ± SD: 0.88 ± 0.24
[8]; 7.5 mg/kg/time iv × 10 qd
  Average Life Span (day) X± SD: 12.3 ± 3.4 days
[8]; 15 mg/kg/time iv × 10 qd
  Average Life Span (day) X± SD: 13.1 ± 2.7 days
[8]; 30 mg/kg/time iv × 10 qd
  Average Life Span (day) X± SD: 14.1 ± 2.3 days
[8]; 60 mg/kg/time iv × 10 qd
  Average Life Span (day) X± SD: 14.9 ± 2.1 days
[9]; HCT-15, 4 hr/24 hr × 2
  IC50: 199 ± 11.5 µg/mL
[9]; HCT-15, 4 hr/24 hr × 3
  IC50: 165 ± 23.0 µg/mL
[9]; HCT-15, 4 hr/24 hr
  IC50: 214 ± 15.8 µg/mL
[9]; HCT-15, 4 hr
  IC50: 229 ± 26.9 µg/mL
[9]; HCT-15, 8 hr
  IC50: 215 ± 34.1 µg/mL
[9]; HCT-15, 12 hr
  IC50: 202 ± 21.8 µg/mL
[9]; HCT-15, 48 hr
  IC50: 197 ± 12.7 µg/mL
[9]; HCT-15, 72 hr
  IC50: 197 ± 22.3 µg/mL
[10]
  blood brain barrier (BBB) passage: pass the blood-brain-barrier
[10]; listed as beta-elemene
  blood brain barrier (BBB) passage: can pass blood brain barrier
[11]; 7.5 mg/kg/d i.p., 28 days
  changes, low dose group: No significant changes
[11]; 30 mg/kg/d i.p., 28 days, n=20
  mortality, high dose group: Six rats in high dose group died
[11]; 15 and 30 mg/kg/d i.p., 28 days
  ascites, medium and high dose groups: Ascites were developed in all animals
[11]; i.p., 28 days consecutively
  safe dose: 7.5 mg/kg/day
[12]; Time 4 hr, n = 8
  IC50: 144 ± 10.4 µg/mL
[12]; Time 4 hr/24 hr × 2, n = 8
  IC50: 82.3 ± 7.11 µg/mL
[12]; Time 4 hr/24 hr × 3, n = 8
  IC50: 56.7 ± 12.6 µg/mL
[12]; Time 4 hr/24 hr, n = 8
  IC50: 96.3 ± 11.1 µg/mL
[12]; Time 8 hr, n = 8
  IC50: 116 ± 4.00 µg/mL
[12]; Time 12 hr, n = 8
  IC50: 110 ± 9.51 µg/mL
[12]; Time 24 hr, n = 8
  IC50: 83.0 ± 13.7 µg/mL
[12]; Time 48 hr, n = 8
  IC50: 75.3 ± 5.04 µg/mL
[12]; Time 72 hr, n = 8
  IC50: 77.7 ± 14.2 µg/mL
A549 lung cancer; A549, 24 h
  IC50: 62.0 µg/mL
A549 lung cancer; A549, 48 h
  IC50: 55.6 µg/mL
A549 lung cancer; A549, 72 h
  IC50: 56.4 µg/mL
Human liver cancer QGY; 12.5 mg/kg/time iv × 10 bid
  Inhibition Rate %: 30.92%
  Tumor Weight (g) X ± SD: 1.43 ± 0.12 g
Human liver cancer QGY; 25 mg/kg/time iv × 10 bid
  Inhibition Rate %: 37.20%
  Tumor Weight (g) X ± SD: 1.30 ± 0.18 g
Human liver cancer QGY; 50 mg/kg/time iv × 10 bid
  Inhibition Rate %: 45.89%
  Tumor Weight (g) X ± SD: 1.12 ± 0.19 g
